How the values were obtained:
DLD-1 BRCA2(−/−) cells = experiment: Cell growth inhibition assay (CellTiter-Glo cell viability, 7 days); assay type: cell-based; settings: Homo sapiens, 168 h
Summary of the method: (§1)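 Cells were seeded at 50 (DLD-1 parental), 200 (DLD-1 BRCA2−/−) or 500 (MDA-MB-436) cells/well onto 1:3 compound dilutions, top final 10 or 30 μM. Culture ran 7 days at 37 °C, 5% CO2. ATP was read by CellTiter-Glo 2.0, and IC50 was fitted from growth inhibition.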

DLD-1 parental cells = experiment: as above; assay type: cell-based; settings: Homo sapiens, 168 h
Summary of the method: as §1

[1] = system: MDA-MB-436 (mutated BRCA1) cells; experiment: as above; assay type: cell-based; settings: Homo sapiens, 168 h, MDA-MB-436, 7 days
Summary of the method: as §1

PARP1 = PARP1 (Homo sapiens (Human), UniProt P09874); experiment: Biochemical fluorescent polarization (FP) assay, displacement of PARPi-FL; assay type: binding; settings: 20 nM protein, 3 nM PARPi-FL, 4 h at room temperature
Protocol: (§2) The assay was performed utilizing the following method:
(§3) 100% DMSO was used for the high (with protein) and low (without protein) control samples. 20 nL of compound or DMSO alone was added to individual assay plate wells.
(§4) PARP1 and PARP2 protein were expressed, purified, and diluted in assay buffer containing 50 mM Tris pH 8.0, 0.001% Triton X-100, 10 mM MgCl2, 150 mM NaCl to a final concentration of 20 nM. The PARPi-FL was then added at a final concentration of 3 nM.
(§5) The assay plate is centrifuged at 1000 rpm for 1 min and incubated for 4 h at room temperature.
(§6) The fluorescent polarization is read using an Envision plate reader using the following settings: […]

PARP2 = PARP2 (Homo sapiens (Human), UniProt Q9UGN5); experiment: as above; assay type: binding; settings: 20 nM protein, 3 nM PARPi-FL, 4 h at room temperature; read-out: IC50 FP PARP2
Protocol: as §2, §3, §4, §5, §6

Sequence of PARP2 (Q9UGN5 whole entry): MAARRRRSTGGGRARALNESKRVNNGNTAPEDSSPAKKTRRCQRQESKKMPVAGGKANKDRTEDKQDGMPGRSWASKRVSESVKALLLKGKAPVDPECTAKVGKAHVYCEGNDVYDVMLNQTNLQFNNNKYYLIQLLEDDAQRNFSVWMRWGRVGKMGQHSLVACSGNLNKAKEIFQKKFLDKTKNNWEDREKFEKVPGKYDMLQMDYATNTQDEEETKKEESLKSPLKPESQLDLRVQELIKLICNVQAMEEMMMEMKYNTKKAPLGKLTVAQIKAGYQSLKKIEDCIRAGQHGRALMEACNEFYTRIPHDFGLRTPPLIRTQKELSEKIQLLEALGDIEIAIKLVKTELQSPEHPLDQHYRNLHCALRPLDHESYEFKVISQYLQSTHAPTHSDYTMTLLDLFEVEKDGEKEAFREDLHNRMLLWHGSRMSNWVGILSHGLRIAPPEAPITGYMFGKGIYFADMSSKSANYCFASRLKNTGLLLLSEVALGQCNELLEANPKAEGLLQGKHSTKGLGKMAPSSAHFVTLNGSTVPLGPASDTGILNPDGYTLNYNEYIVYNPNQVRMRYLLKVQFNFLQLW
Sequence of PARP1 (P09874 whole entry): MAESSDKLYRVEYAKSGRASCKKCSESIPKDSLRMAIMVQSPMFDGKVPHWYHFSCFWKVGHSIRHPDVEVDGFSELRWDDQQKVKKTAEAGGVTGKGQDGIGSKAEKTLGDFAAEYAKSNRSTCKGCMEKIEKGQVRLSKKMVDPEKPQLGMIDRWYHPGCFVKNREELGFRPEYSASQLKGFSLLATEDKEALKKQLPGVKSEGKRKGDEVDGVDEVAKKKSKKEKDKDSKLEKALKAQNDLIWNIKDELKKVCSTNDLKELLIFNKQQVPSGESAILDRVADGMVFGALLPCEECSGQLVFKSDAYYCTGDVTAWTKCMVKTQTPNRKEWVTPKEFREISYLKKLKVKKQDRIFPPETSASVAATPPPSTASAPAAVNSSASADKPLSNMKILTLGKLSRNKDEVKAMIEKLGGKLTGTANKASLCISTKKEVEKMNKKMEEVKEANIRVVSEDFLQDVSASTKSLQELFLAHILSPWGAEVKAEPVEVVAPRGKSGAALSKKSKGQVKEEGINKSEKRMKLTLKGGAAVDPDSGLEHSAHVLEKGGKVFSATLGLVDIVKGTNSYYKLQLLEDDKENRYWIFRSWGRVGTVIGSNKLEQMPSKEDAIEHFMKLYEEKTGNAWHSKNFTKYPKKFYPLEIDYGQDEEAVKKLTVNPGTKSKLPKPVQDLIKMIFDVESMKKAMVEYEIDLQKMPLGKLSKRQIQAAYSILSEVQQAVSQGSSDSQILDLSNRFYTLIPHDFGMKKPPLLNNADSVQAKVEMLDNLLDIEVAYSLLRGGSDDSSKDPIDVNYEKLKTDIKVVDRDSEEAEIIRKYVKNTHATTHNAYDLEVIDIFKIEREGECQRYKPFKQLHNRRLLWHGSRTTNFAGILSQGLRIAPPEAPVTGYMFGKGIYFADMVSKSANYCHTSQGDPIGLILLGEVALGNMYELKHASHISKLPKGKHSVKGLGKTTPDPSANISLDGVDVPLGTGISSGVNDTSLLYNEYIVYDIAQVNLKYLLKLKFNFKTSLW

| SMILES | EC50 (DLD-1 BRCA2(−/−) cells) [nM] | EC50 [1] [nM] | IC50 (PARP1) [nM] | IC50 (PARP2) [nM] | EC50 (DLD-1 parental cells) [nM] |
| --- | --- | --- | --- | --- | --- |
| CNC(=O)c1ccc(O[C@H]2CN(Cc3cnc4cc(C)c(=O)[nH]c4c3)[C@@H]2C)cn1 [Example 50] | 5.3 | 8.7 | 11 | 83000 | – |
| CNC(=O)c1ncc(O[C@H]2CN(Cc3cnc4cc(C)c(=O)[nH]c4c3)[C@@H]2C)cc1F [Example 52] | 12 | 9.8 | 6.3 | 76000 | – |
| CCNC(=O)c1ccc(OC2CN(Cc3cnc4cc(C)c(=O)[nH]c4c3)C2)cn1 [Example 56] | 45 | 12 | 6.2 | 76000 | – |
| Cc1cc2ncc(CN3CC(Oc4ccc(C(=O)NC5CC5)nc4)C3)cc2[nH]c1=O [Example 57] | 12 | 6.8 | 9.4 | 47000 | – |
| CCNC(=O)c1ccc(OC2CN(Cc3cnc4cc(CC)c(=O)[nH]c4c3)C2)cn1 [Example 58] | 3.3 | 1.7 | 6 | 8300 | – |
| Cc1cc2ncc(CN3C[C@H](Oc4ccc(F)nc4)[C@H]3C)cc2[nH]c1=O [Example 62] | 86 | 140 | 18 | 52000 | – |
| CCc1cc2ncc(CN3C[C@H](n4ccc5nc(C(=O)NC)ccc54)[C@H]3C)cc2[nH]c1=O [Example 63, 1-[(2R,3S)-1-[(7-ethyl-6-oxo-5H-1,5-naphthyridin-3-yl)methyl]-2-methylazetidin-3-yl]-N-methylpyrrolo[3,2-b]pyridine-5-carboxamide] | 4.8 | 3.6 | 6.6 | 9600 | – |
| O=C(NC1CC1)c1ccc(OC2CN(Cc3cnc4cc(C5CC5)c(=O)[nH]c4c3)C2)cn1 [Example 73] | 4.8 | 2.1 | 3.6 | 1700 | – |
| CNC(=O)c1ccc(O[C@H]2CN(Cc3cnc4cc(Cl)c(=O)[nH]c4c3)[C@@H]2C)cn1 [Example 77] | 3.8 | 1.8 | 3.8 | > 100000 | – |
| C[C@@H]1[C@@H](Oc2ccc(C(=O)NC3CC3)nc2)CN1Cc1cnc2c(c1)[nH]c(=O)c1ccoc12 [Example 84] | 3 | 1.4 | 8.8 | 48000 | – |
| CNC(=O)c1ccc(O[C@H]2CN(Cc3ccc4nc(C)c(=O)[nH]c4c3F)[C@@H]2C)cn1 [Example 91] | 23 | 27 | 11 | > 100000 | – |

Now from value to molecule, other results behind:

| EC50 (DLD-1 BRCA2(−/−) cells) [nM] | EC50 [1] [nM] | IC50 (PARP1) [nM] | IC50 (PARP2) [nM] | SMILES | EC50 (DLD-1 parental cells) [nM] |
| --- | --- | --- | --- | --- | --- |
| 3.3 | 1.6 | 4.2 | > 10000 | CCc1cc2ncc(CN3CC[C@@H](Oc4ccc(C(=O)NC)nc4)C3)cc2[nH]c1=O [Example 2, 5-{[(3R)-1-[(7-ethyl-6-oxo-5H-1,5-naphthyridin-3-yl)methyl]pyrrolidin-3-yl]oxy}-N-methylpyridine-2-carboxamide] | > 30000 |
| 4.4 | 7.9 | 4.1 | 4200 | CCc1cc2ncc(CN3C[C@H](Oc4ccc(F)cc4)[C@H]3C)cc2[nH]c1=O [Example 51] | – |
| 2.2 | 1.3 | 8 | 61000 | Cc1cc2ncc(CN3C[C@H](Oc4ccc(C(=O)NC5CC5)nc4)[C@H]3C)cc2[nH]c1=O [Example 53] | – |
| 9.8 | 4.7 | 5.5 | > 100000 | CCc1nc2cc(F)c(CN3C[C@H](Oc4ccc(C(=O)NC)nc4)[C@H]3C)cc2[nH]c1=O [Example 59] | – |
| 96 | 43 | > 100 | 2600 | CCc1cc2ncc(CN3C[C@H](Oc4ccc(C(=O)NC)cc4)[C@H]3C)cc2[nH]c1=O [Example 64] | – |
| 2.1 | 1 | 3.3 | 6400 | CCc1cc2ncc(CN3C[C@H](Oc4cnc(C(=O)NC5CC5)c(F)c4)[C@H]3C)cc2[nH]c1=O [Example 66, N-cyclopropyl-5-{[(2R,3S)-1-[(7-ethyl-6-oxo-5H-1,5-naphthyridin-3-yl)methyl]-2-methylazetidin-3-yl]oxy}-3-fluoropyridine-2-carboxamide] | – |
| 1.3 | 1.1 | 4.1 | 2400 | CNC(=O)c1ccc(O[C@H]2CN(Cc3cnc4cc(C(F)F)c(=O)[nH]c4c3)[C@@H]2C)cn1 [Example 70] | – |
| 3.9 | 2.6 | 8.9 | 25000 | Cc1cc2ncc(CN3C[C@H](Oc4ccc(C(=O)NC5(C)CC5)nc4)[C@H]3C)cc2[nH]c1=O [Example 74] | – |
| 1.2 | 0.72 | 4 | 5200 | C[C@@H]1[C@@H](Oc2ccc(C(=O)NC3CC3)nc2)CN1Cc1cnc2cc(C(F)F)c(=O)[nH]c2c1 [Example 75, N-cyclopropyl-5-{[(2R,3S)-1-{[7-(difluoromethyl)-6-oxo-5H-1,5-naphthyridin-3-yl]methyl}-2-methylazetidin-3-yl]oxy}pyridine-2-carboxamide] | – |
| 1.4 | 1.1 | 2.8 | 8700 | C[C@@H]1[C@@H](Oc2ccc(C(=O)NC3CC3)nc2)CN1Cc1cnc2cc(Cl)c(=O)[nH]c2c1 [Example 76, 5-{[(2R,3S)-1-[(7-chloro-6-oxo-5H-1,5-naphthyridin-3-yl)methyl]-2-methylazetidin-3-yl]oxy}-N-cyclopropylpyridine-2-carboxamide] | – |
| 4.3 | 1.8 | 3.8 | 5300 | Cc1cc2ncc(CN3C[C@H](Oc4ccc(C(=O)NC5CC(F)(F)C5)nc4)[C@H]3C)cc2[nH]c1=O [Example 80] | – |
| 3.1 | 2.1 | 4.5 | 6800 | Cc1cc2ncc(CN3C[C@H](Oc4ccc(C(=O)N[C@H]5C[C@H](F)C5)nc4)[C@H]3C)cc2[nH]c1=O [Example 82] | – |

From patent publication US11802128B2, “Azetidine and pyrrolidine PARP1 inhibitors and uses thereof” (Xinthera, Inc., priority 2021, dated 2023)
